Laboratory results as given in ChEMBL document CHEMBL5365441, “Novel Foscan®-derived ring-fused chlorins for photodynamic therapy of cancer” (Bioorg Med Chem, 2023).

Columns and labels:
[1] = Drug internalization in mouse NIH/3T3 cells at 2.5 uM by flow cytometry analysis; assay type: ADME, cell-based; conditions: nih3t3, 2.5 µM, TDE = time-dependent effect, time 3-24 hrs
[2] = Induction of singlet oxygen production in EtOH assessed as singlet oxygen quantum yield by SOSG reagent based assay; assay type: functional
MDA-MB-231 [3] = assay: Cytotoxicity against human MDA-MB-231 cells assessed as reduction in cell viability incubated for 24 hrs under dark condition by resazurin reduction assay; assay type: functional, cell-based; conditions: MDA-MB-231, 24 h
MDA-MB-231 [4] = assay: Photocytotoxicity against human MDA-MB-231 cells assessed as reduction in cell viability preincubated for 24 hrs followed by washout and 1 J/cm2 light irradiation for 24 hrs by resazurin reduction assay; assay type: functional, cell-based; conditions: MDA-MB-231, light or radiation study
[5] = Emission property of compound in DMSO assessed as fluorescence quantum yield; assay type: physicochemical
[6] = Cytotoxicity against mouse NIH/3T3 cells assessed as reduction in cell viability incubated for 24 hrs under dark condition by resazurin reduction assay; assay type: toxicity, cell-based, NIH3T3
MDA-MB-231 [7] = assay: Phototherapeutic index, ratio of IC50 for cytotoxicity against human MDA-MB-231 cells under dark condition to IC50 for photocytotoxicity against human MDA-MB-231 cells in presence of 1 J/cm2 light irradiation; assay type: functional
[8] = Photocytotoxicity against mouse NIH/3T3 cells assessed as reduction in cell viability preincubated for 24 hrs followed by washout and 1 J/cm2 light irradiation for 24 hrs by resazurin reduction assay; assay type: toxicity, cell-based, NIH3T3
[9] = Photostability of compound in DMSO assessed as photodecomposition quantum yield; assay type: physicochemical
[10] = Drug internalization in human MDA-MB-231 cells at 2.5 uM by flow cytometry analysis; assay type: ADME, cell-based; conditions: mda-mb-231, 2.5 µM, TDE = time-dependent effect, time 3-24 hrs
[11] = Drug distribution in golgi body of human U2OS cells expressing GALT1-GFP assessed as increase in fluorescence intensity at 5 uM incubated for 24 hrs by Hoechst staining based confocal microscopic analysis; assay type: ADME, subcellular
[12] = Drug distribution in endoplasmic reticulum of human U2OS cells expressing CALR-GFP assessed as increase in fluorescence intensity at 5 uM incubated for 24 hrs by Hoechst staining based confocal microscopic analysis; assay type: ADME, subcellular

Drug uptake [1] | Activity [5] | Activity [9] | Drug uptake [10] | Drug uptake [11] | Drug uptake [12] | Structure (SMILES) | Activity [2] | IC50 (MDA-MB-231 [3]) | IC50 (MDA-MB-231 [4]) | IC50 at 24 h [6] | Ratio IC50 (MDA-MB-231 [7]) | IC50 [8]
Tde | 0.11 | 60.8 10^-6No_unit | Tde |  |  | COC(=O)c1cc2n(n1)CC1c3nc(c(-c4cccc(O)c4)c4ccc([nH]4)c(-c4cccc(O)c4)c4nc(c(-c5cccc(O)c5)c5ccc([nH]5)c3-c3cccc(O)c3)C=C4)C1C2 (centres undefined) | 0.53 | 7.74 µM | 138 nM | > 10 µM | 56.27 | 109 nM
Tde | 0.11 | 66.9 10^-6No_unit | Tde | Not Active | Not Active | COC(=O)c1cc2n(n1)CC1c3nc(c(-c4cccc(OC(C)=O)c4)c4ccc([nH]4)c(-c4cccc(OC(C)=O)c4)c4nc(c(-c5cccc(OC(C)=O)c5)c5ccc([nH]5)c3-c3cccc(OC(C)=O)c3)C=C4)C1C2 (centres undefined) | 0.45 | > 10 µM | 1.3 nM | > 10 µM |  | 617 nM
Tde | 0.1 | 54.8 10^-6No_unit | Tde |  |  | OCc1nn2c(c1CO)CC1c3nc(c(-c4cccc(O)c4)c4ccc([nH]4)c(-c4cccc(O)c4)c4nc(c(-c5cccc(O)c5)c5ccc([nH]5)c3-c3cccc(O)c3)C=C4)C1C2 (centres undefined) | 0.49 | 11.4 µM | 309 nM | > 10 µM | 37 | 343 nM
Tde | 0.1 | 52.7 10^-6No_unit | Tde | Active | Active | OCc1cc2n(n1)CC1c3nc(c(-c4cccc(O)c4)c4ccc([nH]4)c(-c4cccc(O)c4)c4nc(c(-c5cccc(O)c5)c5ccc([nH]5)c3-c3cccc(O)c3)C=C4)C1C2 (centres undefined) | 0.5 | 7.74 µM | 86.3 nM | > 10 µM | 93.37 | 107 nM
Tde | 0.12 | 60.8 10^-6No_unit | Tde |  |  | [N-]=[N+]=NCc1cc2n(n1)CC1c3nc(c(-c4cccc(O)c4)c4ccc([nH]4)c(-c4cccc(O)c4)c4nc(c(-c5cccc(O)c5)c5ccc([nH]5)c3-c3cccc(O)c3)C=C4)C1C2 (centres undefined) | 0.47 | 15.8 µM | 106 nM | 10.6 µM | 149.7 | 93.1 nM
Tde |  |  | Tde |  |  | Oc1cccc(-c2c3nc(c(-c4cccc(O)c4)c4ccc([nH]4)c(-c4cccc(O)c4)c4nc(c(-c5cccc(O)c5)c5ccc2[nH]5)C=C4)C=C3)c1 |  | 3.31 µM | 25.7 nM | 9.16 µM |  | 12.5 nM
